The values that follow come from patent US5236957A, “N-phenylalkyl substituted α-amino carboxamide derivatives and process for their preparation” (Farmitalia Carlo Erba Srl, priority 1989, dated 1993).

Read-outs that look alike come from different tables or passages of the source.

Test [1] has as its system bicucculine-induced lethality in mice. Put plainly: Antagonism of bicucculine-induced lethality in mice. It is filed as in vivo. Conditions: Mus musculus, po; drugs given orally 1 h before bicucculine (0.6 mg/kg, i.v.); protection of 50% of mice from lethality. Here is the method: (§1) The activity on the CNS of the compounds of the invention was evaluated on the basis of pharmacological methods, such as, for example, the antagonism of convulsions and lethality induced by intravenous injection of bicucculine in mice (Antiepileptic Drug, D. M. Woodbury et al. eds., 2nd edition, Raven Press, New York, 1982), or the antagonism of convulsions induced in mice by subcutaneous injection of 3-mercaptopropionic acid (W. Loscher, Biochem. Pharmacol., 28; 1397-1407, 1979). Accordingly in following Tables 1 and 2, the doses which protect 50% of the mice (i.e. ED50) from lethality and tonic convulsions induced by bicucculine and 3-mercaptopropanoic acid, respectively, are given for a representative group of compounds according to the present invention.
Antagonism of bicucculine-induced lethality in mice.
Drugs were given orally 1 h before bicucculine (0.6 mg/kg, i.v.)

Test [2] deals with 3-mercaptopropionic acid (MPA) induced tonic convulsions in mice. The test is described as follows: Antagonism of 3-mercaptopropionic acid (MPA) induced tonic convulsions in mice. It is filed as in vivo. Conditions: Mus musculus, po. As for the experimental part: as §1
Antagonism of 3-mercaptopropionic acid (MPA) induced
tonic convulsions in mice; drugs were given orally
1 h before MPA (60 mg/kg s.c.)

Another test concerns the target T1, MAO type B (Rattus norvegicus, UniProt P19643).
T1 construct: using rat liver mitochondria as the source of MAO; from tissue; host or cells: rat liver mitochondria
T1 sequence (P19643 1-520): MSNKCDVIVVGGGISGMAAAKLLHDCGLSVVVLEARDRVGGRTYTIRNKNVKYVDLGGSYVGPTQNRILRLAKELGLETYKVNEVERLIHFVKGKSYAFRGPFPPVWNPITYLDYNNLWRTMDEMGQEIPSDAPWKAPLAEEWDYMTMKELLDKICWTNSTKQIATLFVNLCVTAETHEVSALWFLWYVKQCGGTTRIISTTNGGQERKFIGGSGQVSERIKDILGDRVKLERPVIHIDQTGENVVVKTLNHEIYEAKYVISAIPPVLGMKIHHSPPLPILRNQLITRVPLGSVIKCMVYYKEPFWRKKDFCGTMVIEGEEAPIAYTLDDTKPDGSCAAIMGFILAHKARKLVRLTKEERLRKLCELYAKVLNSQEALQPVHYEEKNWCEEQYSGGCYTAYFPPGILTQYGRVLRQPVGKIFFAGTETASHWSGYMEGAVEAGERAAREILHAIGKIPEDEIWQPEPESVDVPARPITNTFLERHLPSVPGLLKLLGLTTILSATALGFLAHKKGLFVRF
Put plainly: Inhibition of MAO type B, rat liver mitochondria, 2-phenylethylamine as substrate. It is filed as biochemical. The following applies: rat liver mitochondria as source of MAO.

Test [3] relates to serotonin (5-HT) and 5-hydroxy-indole-3-acetic acid (5-HIAA). The test is described as follows: Levels of 5-HT and 5-HIAA in frontal cortex of mice. It is filed as in vivo. Conditions: 200 mg/kg p.o.
[4] abbreviates: drugs given orally 1 h before MPA (60 mg/kg s.c.), protection of 50% of mice from tonic convulsions, read-out: ED50.

The ED50 is the dose that gives a 50% effect, or the effect in half of the subjects. In general, IC50 refers to the point on the concentration scale where inhibition reaches its midpoint. A higher IC50 goes with weaker potency. In the case of `NC(=O)CNCc1ccc(OCc2cccc(Cl)c2)cc1` [FCE 25989, 2-[4-(3-chlorobenzyloxy)benzyl]aminoacetamide], in test [1], it took a dose of 190 mg/kg to reach the 50% effect level (ED50). Further, the ED50 in test [2] (setting [4]) amounted to 28 mg/kg. The same molecule displayed an IC50 against MAO type B of 200 nM. Further, in test [3], the “increase of 5-HIAA” value stood at 37% and the “increase of 5-HT” value is 48%.
`C[C@@H](NCc1ccc(OCc2cccc(Cl)c2)cc1)C(N)=O` [FCE 26312, (R)-2-[4-(3-chlorobenzyloxy)benzyl]aminopropionamide]: the ED50 in test [1] was determined as 50 mg/kg; in test [2] (setting [4]) it was 10 mg/kg.
For `CNC(=O)[C@H](CO)NCc1ccc(OCc2ccccc2)cc1` [FCE 26358, (S)-2-(4-benzyloxybenzyl)amino-3-hydroxy-N-methylpropionamide] the same measures were 16 mg/kg and 43 mg/kg.
Regarding `CNC(=O)[C@H](CO)NCc1ccc(OCc2cccc(Cl)c2)cc1` [FCE 26359, (S)-2-[4-(3-chlorobenzyloxy)benzyl]amino-3-hydroxy-N-methylpropionamide], in test [2] (setting [4]), the ED50 amounted to 29 mg/kg.
`CNC(=O)[C@H](CO)NCc1ccc(OCc2ccccc2Cl)cc1` [FCE 26502, (S)-2-[4-(2-chlorobenzyloxy)benzyl]amino-3-hydroxy-N-methylpropionamide]: the 50% effective dose (ED50) in test [1] is 27 mg/kg; in test [2] (setting [4]) it was 16 mg/kg.
The like results for `C[C@H](NCc1ccc(OCc2ccccc2)cc1)C(N)=O` [FCE 26550, (S)-2-(4-benzyloxybenzyl)aminopropionamide] were, in that order, 15 mg/kg and 13 mg/kg.
Take `CNC(=O)[C@H](CO)NCc1ccc(OCc2ccccc2F)cc1` [FCE 26649]: the median effective dose (ED50) in test [1] stood at 12 mg/kg.
Molecule `CNC(=O)[C@H](CO)NCc1ccc(OCc2cccc(F)c2)cc1` [FCE 26650, (S)-2-[4-(3-fluorobenzyloxy)benzyl]amino-3-hydroxy-N-methylpropionamide] showed a median effective dose (ED50) in test [1] of 25 mg/kg.
Still for that read-out and setting: as for `C[C@H](NCc1ccc(OCc2ccccc2Cl)cc1)C(N)=O` [FCE 26700, (S)-2-[4-(2-chlorobenzyloxy)benzyl]aminopropionamide], the figure is 17 mg/kg.
On the same count and under the same terms, as for `C[C@H](NCc1ccc(Cc2ccccc2)cc1)C(N)=O` [FCE 26723, (S)-2-(4-benzylbenzyl)aminopropionamide], the figure is 16 mg/kg.
Still for that read-out and setting: under `C[C@H](NCc1ccc(OCc2cccc(F)c2)cc1)C(N)=O` [FCE 26743, (S)-2-[4-(3-fluorobenzyloxy)benzyl]aminopropionamide] stands 29 mg/kg; under `C[C@H](NCc1ccc(NCc2ccccc2)cc1)C(N)=O` [FCE 26749, (S)-2-(4-benzylaminobenzyl)aminopropionamide], 9 mg/kg; under `C[C@@H](C(N)=O)N(C)Cc1ccc(Cc2ccccc2)cc1` [FCE 26762, (S)-2-[N-(4-benzylbenzyl)-N-methyl]aminopropionamide], 54 mg/kg.
As for `CCCC(CCC)C(=O)O` [Valproate, reference compound], the results for the ED50 in test [1] and in test [2] (1 h) were 401 mg/kg and 302 mg/kg, respectively.
